Results: ChEMBL document CHEMBL3046616, “Design, synthesis, and biological activities of milbemycin analogues” (2011)

Legend:
Assay type in all cases: functional
Mythimna separata = experiment: Insecticidal activity against Mythimna separata (Oriental armyworm) fourth-instar larvae reared compound pre-treated corn leaves assessed as insect mortality at 200 mg/L measured 2 days post compound dose
Tetranychus cinnabarinus = experiment: Insecticidal activity against Tetranychus cinnabarinus (carmine spider mite) […] assessed as larvicidal activity at 0.006 mg/L after 48 hr
Aphis fabae = experiment: Insecticidal activity against Aphis fabae (black bean aphid) infested soybean tender shoots measured 48 hr post compound dose by modified FAO dip method; parameters: concentration or dose not given beside the values

| Compound | mortality at 200 µg/mL (Mythimna separata) | mortality at 0.006 µg/mL (Tetranychus cinnabarinus) | mortality (Aphis fabae) |
| --- | --- | --- | --- |
| CCC(C)[C@H]1O[C@]2(CC[C@@H]1C)C[C@@H]1C[C@@H](C/C=C(\C)[C@@H](O[C@H]3C[C@H](OC)[C@@H](OC(=O)/C(=N\OC)c4ccccc4)[C@H](C)O3)[C@@H](C)/C=C/C=C3\CO[C@@H]4/C(=N/OC)C(C)=C[C@@H](C(=O)O1)[C@]34O)O2 (some centres not stated) | 0% | 36.6% | 15.9% |
| CCC(C)[C@H]1O[C@]2(CC[C@@H]1C)C[C@@H]1C[C@@H](C/C=C(\C)[C@@H](OC(=O)c3ccc(F)cc3)[C@@H](C)/C=C/C=C3\CO[C@@H]4[C@H](O)C(C)=C[C@@H](C(=O)O1)[C@]34O)O2 (some centres not stated) | 83.3% | 47.4% | 56.8% |
| CCC(C)[C@H]1O[C@]2(CC[C@@H]1C)C[C@@H]1C[C@@H](C/C=C(\C)[C@@H](OC(=O)C3C(C=C(Br)Br)C3(C)C)[C@@H](C)/C=C/C=C3\CO[C@@H]4[C@H](O)C(C)=C[C@@H](C(=O)O1)[C@]34O)O2 (some centres not stated) | 100% | 32.1% | 72.9% |
| C/C=C\C(=O)O[C@@H]1/C(C)=C/C[C@@H]2C[C@@H](C[C@]3(CC[C@H](C)[C@@H](C(C)CC)O3)O2)OC(=O)[C@@H]2C=C(C)[C@@H](O)[C@H]3OC/C(=C\C=C\[C@@H]1C)[C@]32O (some centres not stated) | 76.8% | 40.9% | 73.5% |
| CCC(C)[C@H]1O[C@]2(CC[C@@H]1C)C[C@@H]1C[C@@H](C/C=C(\C)[C@@H](OC(=O)c3ccccc3)[C@@H](C)/C=C/C=C3\CO[C@@H]4/C(=N/OC)C(C)=C[C@@H](C(=O)O1)[C@]34O)O2 (some centres not stated) | 0% | 9.2% | 7.2% |
| CCC(C)[C@H]1O[C@]2(CC[C@@H]1C)C[C@@H]1C[C@@H](C/C=C(\C)[C@@H](OC(=O)c3ccc(Cl)cc3)[C@@H](C)/C=C/C=C3\CO[C@@H]4/C(=N/OC)C(C)=C[C@@H](C(=O)O1)[C@]34O)O2 (some centres not stated) | 0% | 10.2% | 0% |
| CCC(C)[C@H]1O[C@]2(CC[C@@H]1C)C[C@@H]1C[C@@H](C/C=C(\C)[C@@H](OC(=O)c3ccc(F)cc3)[C@@H](C)/C=C/C=C3\CO[C@@H]4/C(=N/OC)C(C)=C[C@@H](C(=O)O1)[C@]34O)O2 (some centres not stated) | 0% | 19.8% | 0% |
| CCC(C)[C@H]1O[C@]2(CC[C@@H]1C)C[C@@H]1C[C@@H](C/C=C(\C)[C@@H](OC(=O)Cc3ccccc3)[C@@H](C)/C=C/C=C3\CO[C@@H]4[C@H](O)C(C)=C[C@@H](C(=O)O1)[C@]34O)O2 (some centres not stated) | 89.9% | 44.9% | 62.7% |
| CCC(C)[C@H]1O[C@]2(CC[C@@H]1C)C[C@@H]1C[C@@H](C/C=C(\C)[C@@H](OC(=O)Nc3ccc(Cl)cc3)[C@@H](C)/C=C/C=C3\CO[C@@H]4[C@H](O)C(C)=C[C@@H](C(=O)O1)[C@]34O)O2 (some centres not stated) | 88.5% | 30.8% | 67.8% |
| CCC(C)[C@H]1O[C@]2(CC[C@@H]1C)C[C@@H]1C[C@@H](C/C=C(\C)[C@@H](O[C@H]3C[C@H](OC)[C@@H](OC(=O)c4ccc(OC)cc4)[C@H](C)O3)[C@@H](C)/C=C/C=C3\CO[C@@H]4[C@H](O)C(C)=C[C@@H](C(=O)O1)[C@]34O)O2 (some centres not stated) | 100% | 9.7% | 92.3% |
| CCC(C)[C@H]1O[C@]2(CC[C@@H]1C)C[C@@H]1C[C@@H](C/C=C(\C)[C@@H](O[C@H]3C[C@H](OC)[C@@H](OC(=O)c4ccccc4OC)[C@H](C)O3)[C@@H](C)/C=C/C=C3\CO[C@@H]4[C@H](O)C(C)=C[C@@H](C(=O)O1)[C@]34O)O2 (some centres not stated) | 98.2% | 16.4% | 100% |
| CCC(C)[C@H]1O[C@]2(CC[C@@H]1C)C[C@@H]1C[C@@H](C/C=C(\C)[C@@H](OC(=O)Nc3ccccc3)[C@@H](C)/C=C/C=C3\CO[C@@H]4[C@H](O)C(C)=C[C@@H](C(=O)O1)[C@]34O)O2 (some centres not stated) | 100% | 55.2% | 96.8% |
| CCC(C)[C@H]1O[C@]2(CC[C@@H]1C)C[C@@H]1C[C@@H](C/C=C(\C)[C@@H](O[C@H]3C[C@H](OC)[C@@H](OC(=O)Nc4ccc(Cl)cc4)[C@H](C)O3)[C@@H](C)/C=C/C=C3\CO[C@@H]4[C@H](O)C(C)=C[C@@H](C(=O)O1)[C@]34O)O2 (some centres not stated) | 77.9% | 29.8% | 90.3% |
| CCC(C)[C@H]1O[C@]2(CC[C@@H]1C)C[C@@H]1C[C@@H](C/C=C(\C)[C@@H](OC(=O)c3ccc(OC)cc3)[C@@H](C)/C=C/C=C3\CO[C@@H]4/C(=N/OC)C(C)=C[C@@H](C(=O)O1)[C@]34O)O2 (some centres not stated) | 0% | 5.9% | 6.3% |
| CCC(C)[C@H]1O[C@]2(CC[C@@H]1C)C[C@@H]1C[C@@H](C/C=C(\C)[C@@H](O[C@H]3C[C@H](OC)[C@@H](OC(=O)c4ccccc4)[C@H](C)O3)[C@@H](C)/C=C/C=C3\CO[C@@H]4/C(=N/OC)C(C)=C[C@@H](C(=O)O1)[C@]34O)O2 (some centres not stated) | 0% | 8.6% | 5.9% |
| CCC(C)[C@H]1O[C@]2(CC[C@@H]1C)C[C@@H]1C[C@@H](C/C=C(\C)[C@@H](OC(=O)c3ccccc3)[C@@H](C)/C=C/C=C3\CO[C@@H]4[C@H](O)C(C)=C[C@@H](C(=O)O1)[C@]34O)O2 (some centres not stated) | 88.6% | 31.1% | 76.5% |
| CCC(C)[C@H]1O[C@]2(CC[C@@H]1C)C[C@@H]1C[C@@H](C/C=C(\C)[C@@H](OC(=O)c3ccc(C)cc3)[C@@H](C)/C=C/C=C3\CO[C@@H]4[C@H](O)C(C)=C[C@@H](C(=O)O1)[C@]34O)O2 (some centres not stated) | 87.6% | 27.1% | 56.4% |
| CCC(C)[C@H]1O[C@]2(CC[C@@H]1C)C[C@@H]1C[C@@H](C/C=C(\C)[C@@H](O[C@H]3C[C@H](OC)[C@@H](OC(=O)c4ccc(C)cc4)[C@H](C)O3)[C@@H](C)/C=C/C=C3\CO[C@@H]4[C@H](O)C(C)=C[C@@H](C(=O)O1)[C@]34O)O2 (some centres not stated) | 89.7% | 4.5% | 92.5% |
| CCC(C)[C@H]1O[C@]2(CC[C@@H]1C)C[C@@H]1C[C@@H](C/C=C(\C)[C@@H](O[C@H]3C[C@H](OC)[C@@H](OC(=O)Nc4ccccc4)[C@H](C)O3)[C@@H](C)/C=C/C=C3\CO[C@@H]4[C@H](O)C(C)=C[C@@H](C(=O)O1)[C@]34O)O2 (some centres not stated) | 100% | 45.2% | 97.6% |
| CCC(C)[C@H]1O[C@]2(CC[C@@H]1C)C[C@@H]1C[C@@H](C/C=C(\C)[C@@H](O[C@H]3C[C@H](OC)[C@@H](OC(=O)c4ccc(Cl)cc4)[C@H](C)O3)[C@@H](C)/C=C/C=C3\CO[C@@H]4/C(=N/OC)C(C)=C[C@@H](C(=O)O1)[C@]34O)O2 (some centres not stated) | 0% | 6.2% | 8.7% |
| CCC(C)[C@H]1O[C@]2(CC[C@@H]1C)C[C@@H]1C[C@@H](C/C=C(\C)[C@@H](OC(=O)c3ccc(OC)cc3)[C@@H](C)/C=C/C=C3\CO[C@@H]4[C@H](O)C(C)=C[C@@H](C(=O)O1)[C@]34O)O2 (some centres not stated) | 100% | 34.8% | 75.2% |
| CCC(C)[C@H]1O[C@]2(CC[C@@H]1C)C[C@@H]1C[C@@H](C/C=C(\C)[C@@H](O[C@H]3C[C@H](OC)[C@@H](OC(=O)c4ccc(F)cc4)[C@H](C)O3)[C@@H](C)/C=C/C=C3\CO[C@@H]4/C(=N/OC)C(C)=C[C@@H](C(=O)O1)[C@]34O)O2 (some centres not stated) | 0% | 11.1% | 11.2% |
| CCC(C)[C@H]1O[C@]2(CC[C@@H]1C)C[C@@H]1C[C@@H](C/C=C(\C)[C@@H](OC(=O)/C(=N\OC)c3ccccc3)[C@@H](C)/C=C/C=C3\CO[C@@H]4/C(=N/OC)C(C)=C[C@@H](C(=O)O1)[C@]34O)O2 (some centres not stated) | 0% | 49% | 6.5% |
| CCC(C)[C@H]1O[C@]2(CC[C@@H]1C)C[C@@H]1C[C@@H](C/C=C(\C)[C@@H](O[C@H]3C[C@H](OC)[C@@H](OC(=O)C4C(C=C(Br)Br)C4(C)C)[C@H](C)O3)[C@@H](C)/C=C/C=C3\CO[C@@H]4[C@H](O)C(C)=C[C@@H](C(=O)O1)[C@]34O)O2 (some centres not stated) | 83.3% | 13.4% | 100% |
| C/C=C/C(=O)O[C@H]1[C@H](C)O[C@@H](O[C@@H]2/C(C)=C/C[C@@H]3C[C@@H](C[C@]4(CC[C@H](C)[C@@H](C(C)CC)O4)O3)OC(=O)[C@@H]3C=C(C)[C@@H](O)[C@H]4OC/C(=C\C=C\[C@@H]2C)[C@]43O)C[C@@H]1OC (some centres not stated) | 88.9% | 25.1% | 100% |
| CCC(C)[C@H]1O[C@]2(CC[C@@H]1C)C[C@@H]1C[C@@H](C/C=C(\C)[C@@H](O[C@H]3C[C@H](OC)[C@@H](OC(=O)c4ccc(OC)cc4)[C@H](C)O3)[C@@H](C)/C=C/C=C3\CO[C@@H]4/C(=N/OC)C(C)=C[C@@H](C(=O)O1)[C@]34O)O2 (some centres not stated) | 0% | 6.8% | 9.3% |
| CCC(C)[C@H]1O[C@]2(CC[C@@H]1C)C[C@@H]1C[C@@H](C/C=C(\C)[C@@H](O[C@H]3C[C@H](OC)[C@@H](OC(=O)C4C(C=C(Cl)Cl)C4(C)C)[C@H](C)O3)[C@@H](C)/C=C/C=C3\CO[C@@H]4[C@H](O)C(C)=C[C@@H](C(=O)O1)[C@]34O)O2 (some centres not stated) | 87.2% | 11.8% | 92.3% |
| CCC(C)[C@H]1O[C@]2(CC[C@@H]1C)C[C@@H]1C[C@@H](C/C=C(\C)[C@@H](OC(=O)/C(=N\OC)c3ccccc3)[C@@H](C)/C=C/C=C3\CO[C@@H]4[C@H](O)C(C)=C[C@@H](C(=O)O1)[C@]34O)O2 (some centres not stated) | 75.5% | 41.5% | 86.3% |
| CCC(C)[C@H]1O[C@]2(CC[C@@H]1C)C[C@@H]1C[C@@H](C/C=C(\C)[C@@H](OC(=O)CC(C)(C)C)[C@@H](C)/C=C/C=C3\CO[C@@H]4[C@H](O)C(C)=C[C@@H](C(=O)O1)[C@]34O)O2 (some centres not stated) | 88.9% | 35.5% | 76.5% |
